Several values for one entry are separate records, joined by “and”; a condition that tells them apart may be missing. Equal values may be shown once.
How the values were obtained:
trypsin [1] = assay: Trypsin inhibition (EnzChek protease assay kit), zinc oxide/acid mixtures and zinc oxide containing formulations; format: biochemical; conditions: Table 5
Experimental: The objective of the following experiment was to determine whether and to what extent adding an acid to a formulation containing zinc oxide had on inhibition of trypsin activity in an in vitro assay. The inhibition of trypsin-induced cleavage of a fluorescent casein peptide was measured using the EnzChek^TM protease assay kit, following manufacturer's instructions (EnzChek^TM Protease Assay Kits Product Information, Revised; Molecular Probes, Eugene OR). Mixtures of zinc oxide and acid at different concentrations were prepared in lx PBS (pH 7.4) and their pH was recorded as listed in the Tables 5-8. Trypsin working solution (Sigma, St. Louis, MO, unit/mL) was prepared in a portion of the digestion buffer provided in the assay kit (the digestion buffer provided in the assay kit comprises, in total, 260mL of 200nM Tris-HCl, pH7.8, containing 40mM sodium azide). Stock solution of BODIPY FL casein (the trypsin substrate, comprising a casein derivative labeled with a pH-insensitive green fluorescent proten, mg/mL) was prepared by adding 0.2 mL of phosphate buffered saline (PBS) to the substrate vials provided in kit, allowing sufficient time at room temperature for the substrate to dissolve fully (each substrate vial provided in the kit contains 200µg of BODIPY FL casein lyophilized from phosphate-buffered saline (PBS)). The final substrate working solution (10 microgram/mL) was prepared by dilution of 0.2 mL of the stock solution of BODIPY FL with 19.8 mL of digestion buffer (pH 7.8). To detect enzyme activity, 100µL of the BODIPY FL casein working solution was added to 50µL of trypsin working solution (containing 100U of trypsin) and 50 µl of the solution of the required test material (if required). Following incubation of the trypsin, with or without the test materials (50 µl), with the BODIPY fluorescent casein substrate, at room temperature for one hour, fluorescence was measured (excitation 485 nm /emission 530 nm) using a SpectraMax microtiter plate reader (Molecular Devices Corporation, Sunnyvale, CA) and Softmax Pro software (Molecular Devices Corporation). Each experiment was performed in three replicates.
For preparations, samples were diluted in lx PBS at 1:10 ratio and subjected to centrifugation at 13,200 rpm for 1 min using Eppendorf Centrifuge (Model 5415D, Eppendorf AG, Hamburg, Germany) to remove the solid formulation ingredients. The supernatants (50 µl) were used for trypsin inhibitory activity analyses as described above. For preparations, samples were diluted in 10, or 20 or 40 % ethanol and subjected to centrifugation at 13,200 rpm for 1 min using Eppendorf Centrifuge (Model 5415D, Eppendorf AG, Hamburg, Germany) to remove the solid formulation ingredients. The supernatants (50 µl) were used for trypsin inhibition assay. […] The percentage activity is quoted with comparison to results obtained from the assay performed without the addition of a test substrate.
For the above study, the results are an average of three independent experiments, wherein the samples, which were diluted at 1:10 ratio in lx PBS solutions containing 10%, 20% or 40% ethanol, were tested in triplicates.

trypsin [2] = biological target: T1, trypsin (Bos taurus, UniProt P00760); conditions: at low concentrations, i.e., around 0.001 M; cited from earlier work
T1 sequence (P00760 24-246): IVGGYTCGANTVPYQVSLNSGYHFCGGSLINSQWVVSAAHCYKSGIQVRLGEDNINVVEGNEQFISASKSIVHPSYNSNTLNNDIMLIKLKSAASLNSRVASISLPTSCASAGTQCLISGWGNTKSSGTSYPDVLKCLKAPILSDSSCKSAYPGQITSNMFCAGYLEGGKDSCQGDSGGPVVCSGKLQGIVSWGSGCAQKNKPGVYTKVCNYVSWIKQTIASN

trypsin [3] = assay: Trypsin inhibition (EnzChek protease assay kit), divalent cation salts with and without talc; format: biochemical; conditions: for % synergistic activity relative to hypothetic additive value: (with talc value minus additive value) divided by additive value; for Salt alone trypsin inhibition activities (%): no talc
Experimental: (§1) The objective of the following experiment was to determine whether and to what extent adding a divalent cation to talc inhibited trypsin activity in an in vitro assay. The inhibition of trypsin-induced cleavage of a fluorescent casein peptide was measured using the EnzChek™ protease assay kit, following manufacturer's instructions (EnzChek™ Protease Assay Kits Product Information, Revised; Molecular Probes, Eugene OR). […] Trypsin working solution (Sigma, St. Louis, MO, unit/mL) was prepared in a portion of the digestion buffer provided in the assay kit (the digestion buffer provided in the assay kit comprises, in total, 260mL of 200nM Tris-HCl, pH7.8, containing 40mM sodium azide). Stock solution of BODIPY FL casein (the trypsin substrate, comprising a casein derivative labeled with a pH-insensitive green fluorescent protein, mg/mL) was prepared by adding 0.2 mL of phosphate buffered saline (PBS) to the substrate vials provided in kit, allowing sufficient time at room temperature for the substrate to dissolve fully (each substrate vial provided in the kit contains 200µg of BODIPY FL casein lyophilized from phosphate-buffered saline (PBS)). The final substrate working solution (10 microgram/mL) was prepared by dilution of 0.2 mL of the stock solution of BODIPY FL with 19.8 mL of digestion buffer (pH 7.8). To detect enzyme activity, 100µL of the BODIPY FL casein working solution was added to 50µL of trypsin working solution (containing 100U of trypsin) and 50µl of the solution of the required test material (if required) . Following incubation of the trypsin, with or without the test materials, with the BODIPY fluorescent casein substrate, at room temperature for one hour, fluorescence was measured (excitation 485 nm /emission 530 nm) using a SpectraMax microtiter plate reader (Molecular Devices Corporation, Sunnyvale, CA) and Softmax Pro software (Molecular Devices Corporation). Each experiment was performed in three replicates. The percentage activity is quoted with comparison to results obtained from the assay performed without the addition of a test substrate.

trypsin [4] = assay: Inhibition of trypsin-induced cleavage of fluorescent casein (EnzChek protease assay kit), salts in PBS; format: biochemical; conditions: acetate monohydrate
Experimental: as §1, with “The” for “The objective of the following experiment was to determine whether and to what extent adding a divalent cation to talc inhibited trypsin activity in an in vitro assay. The”, “Following incubation of the trypsin, with or without the test materials, with the BODIPY fluorescent casein substrate, at room temperature for one hour, fluorescence was measured (excitation 485 nm /emission 530 nm) using a SpectraMax microtiter plate reader (Molecular Devices Corporation, Sunnyvale, CA) and Softmax Pro software (Molecular Devices Corporation). Each experiment was performed in three replicates. The percentage activity is quoted with comparison to results obtained from the assay performed without the addition of a test substrate.” left out

[5] = Table 3, salt alone plus talc alone (8.55%), all at 0.1% (g/mL)
[6] = Table 4, 0.1% MgCl2 and 1% talc
[7] = Table 4, 0.5% MgCl2 and 1% talc

[O]=[Zn] [ZnO, zinc oxide]
% Trypsin inhibitory activity (trypsin [1]; 0.1% ZnO, 0.01 % acetic acid, pH 7.28): 1.85+/-1.34% | % Trypsin inhibitory activity (trypsin [1]; 0.1% ZnO, 0.05% acetic acid, pH 6.03): 49.16+/-1.43% | % Trypsin inhibitory activity (trypsin [1]; 0.1% ZnO, No acetic acid, pH 7.61): -2.6+/-2.76% | % Trypsin inhibitory activity (trypsin [1]; 1% ZnO, 0.01 % acetic acid, pH 7.85): 15.82+/-1.68% | % Trypsin inhibitory activity (trypsin [1]; 1% ZnO, 0.05% acetic acid, pH 6.08): 58.19+/-0.73% | % Trypsin inhibitory activity (trypsin [1]; 1% ZnO, No acetic acid, pH 8.07): 5.40 +/- 1.24% | trypsin inhibitory activity (in words) (trypsin [1]; mixtures of zinc oxide and acetic acid): have trypsin inhibitory activity, which is dose-dependent | protease activity (in words) (trypsin [1]; zinc oxide without acid): minimal protease activity

[Hg+2] [Hg++]
inhibition of the esterase activity of trypsin (trypsin [2]): inhibited the esterase activity of trypsin

CC(=O)O [acetic acid]
% Trypsin inhibitory activity (trypsin [1]; No ZnO, 0.01 % acetic acid, pH 6.84): -11.18+/-2.61% | % Trypsin inhibitory activity (trypsin [1]; No ZnO, 0.05% acetic acid, pH 4.75): 25.81+/-2.13%

[Cl-].[Cl-].[Zn+2] [Zinc chloride]
% synergistic activity relative to hypothetic additive value (trypsin [3]; Table 3, all at 0.1% (g/mL)): -13.01% | Salt alone trypsin inhibition activities (%) (trypsin [3]; Table 3, salt 0.1% (g/mL)): 81.07% | Hypothetically calculated additive value of salt and Talc trypsin inhibition activities (%) (trypsin [3]; [5]): 89.62%

[Ca+2].[Cl-].[Cl-] [Calcium chloride]
% synergistic activity relative to hypothetic additive value (trypsin [3]; Table 3, all at 0.1% (g/mL)): -0.26% | Salt alone trypsin inhibition activities (%) (trypsin [3]; Table 3, salt 0.1% (g/mL)): 17.95% | Hypothetically calculated additive value of salt and Talc trypsin inhibition activities (%) (trypsin [3]; [5]): 26.50%

[Cl-].[Cl-].[Mg+2] [Magnesium chloride]
% synergistic activity relative to hypothetic additive value (trypsin [3]; Table 3, all at 0.1% (g/mL)): 50.75% | Salt alone trypsin inhibition activities (%) (trypsin [3]; Table 3, salt 0.1% (g/mL)): 4.75% | Hypothetically calculated additive value of salt and Talc trypsin inhibition activities (%) (trypsin [3]; [5]): 13.30% | With 1% Talc trypsin inhibition activities (%) (trypsin [3]; Table 4, 0.1% MgCl2 (g/mL) with 1% talc): 25.43% | Salt alone trypsin inhibition activities (%) (trypsin [3]; Table 4, 0.1% MgCl2 (g/mL)): 9.02% | % synergistic activity relative to hypothetical additive value (trypsin [3]; [6]): 104.42% | Hypothetically calculated additive value of salt and Talc trypsin inhibition activities (%) (trypsin [3]; [6]): 12.44% | With 1% Talc trypsin inhibition activities (%) (trypsin [3]; Table 4, 0.5% MgCl2 (g/mL) with 1% talc): 32.84% | Salt alone trypsin inhibition activities (%) (trypsin [3]; Table 4, 0.5% MgCl2 (g/mL)): 19.51% | % synergistic activity relative to hypothetical additive value (trypsin [3]; [7]): 43.22% | Hypothetically calculated additive value of salt and Talc trypsin inhibition activities (%) (trypsin [3]; [7]): 22.93% | With 1% Talc trypsin inhibition activities (%) (trypsin [3]; Table 4, 1% MgCl2 (g/mL) with 1% talc): 40.42% | Salt alone trypsin inhibition activities (%) (trypsin [3]; Table 4, 1% MgCl2 (g/mL)): 22.13% | % synergistic activity relative to hypothetical additive value (trypsin [3]; Table 4, 1% MgCl2 and 1% talc): 58.20% | Hypothetically calculated additive value of salt and Talc trypsin inhibition activities (%) (trypsin [3]; Table 4, 1% MgCl2 and 1% talc): 25.55% | trypsin inhibition (in words) (trypsin [3]; combination of talc and magnesium chloride): synergistic increase in trypsin inhibition | trypsin inhibitory activity (in words) (trypsin [3]; talc or magnesium chloride alone): moderate to low levels of trypsin inhibitory activity

O.O.O.O.[Cl][Fe][Cl] [Iron (II) chloride tetrahydrate]
% synergistic activity relative to hypothetic additive value (trypsin [3]; Table 3, all at 0.1% (g/mL)): -12.35% | Salt alone trypsin inhibition activities (%) (trypsin [3]; Table 3, salt 0.1% (g/mL)): 65.07% | Hypothetically calculated additive value of salt and Talc trypsin inhibition activities (%) (trypsin [3]; [5]): 73.62%

[Cu+2] [Cu++]
inhibition of the esterase activity of trypsin (trypsin [2]): inhibited the esterase activity of trypsin

CC(=O)[O-].CC(=O)[O-].O.[Ca+2] [Calcium acetate monohydrate]
% synergistic activity relative to hypothetic additive value (trypsin [3]; Table 3, all at 0.1% (g/mL)): 3.10% | Salt alone trypsin inhibition activities (%) (trypsin [3]; Table 3, salt 0.1% (g/mL)): 15.31% | Hypothetically calculated additive value of salt and Talc trypsin inhibition activities (%) (trypsin [3]; [5]): 23.86%

[Ag+] [Ag+]
inhibition of the esterase activity of trypsin (trypsin [2]): inhibited the esterase activity of trypsin

CC(=O)[O-].CC(=O)[O-].O.O.O.O.[Mg+2] [Magnesium acetate tetrahydrate]
% synergistic activity relative to hypothetic additive value (trypsin [3]; Table 3, all at 0.1% (g/mL)): 90.09% | Salt alone trypsin inhibition activities (%) (trypsin [3]; Table 3, salt 0.1% (g/mL)): 0.83% | Hypothetically calculated additive value of salt and Talc trypsin inhibition activities (%) (trypsin [3]; [5]): 9.38%

CC(=O)[O-].CC(=O)[O-].[Zn+2] [Zinc acetate dihydrate]
% synergistic activity relative to hypothetic additive value (trypsin [3]; Table 3, all at 0.1% (g/mL)): -15.70% | Salt alone trypsin inhibition activities (%) (trypsin [3]; Table 3, salt 0.1% (g/mL)): 62.84% | Hypothetically calculated additive value of salt and Talc trypsin inhibition activities (%) (trypsin [3]; [5]): 71.39%

[Zn+2] [Zn++]
inhibition of the esterase activity of trypsin (trypsin [2]): to a lesser extent

CC(=O)[O-].CC(=O)[O-].O.[Cu+2] [Copper (II) acetate monohydrate]
% Trypsin inhibitory activity (trypsin [4]): 66.53% and 95.17%
